{"source": "patent US12570695B2", "about": "“Bicyclic peptide ligands specific for EphA2” (priority 2019, dated 2026)", "note": "Starred links: 1 amine or outer side, 2 acyl side, 3 side chain; linkers in the order of their positions; H or OH if unused. Positions of bridges follow the written chain, without caps; N, C: chain ends. Non-standard residues stand in square brackets, D forms with d. Residues, ends and D or L forms follow the SMILES beside them. X5 = O=C(CCSCCN[*:3])N1CN(C(=O)CC[*:1])CN(C(=O)CC[*:2])C1; TATA = O=C(CC[*:1])N1CN(C(=O)CC[*:2])CN(C(=O)CC[*:3])C1; Dip = N[C@H](C(=O)O)C(c1ccccc1)c1ccccc1; Hyp = O=C(O)[C@@H]1C[C@@H](O)CN1; hArg = N=C(N)NCCCC[C@H](N)C(=O)O; Aad = N[C@@H](CCCC(=O)O)C(=O)O; NMeA = CN[C@@H](C)C(=O)O; Mpa = O=C(O)CCS"}
{"target": "human EphA2 (Homo sapiens, UniProt P29317)", "sequence (P29317 24-976)": "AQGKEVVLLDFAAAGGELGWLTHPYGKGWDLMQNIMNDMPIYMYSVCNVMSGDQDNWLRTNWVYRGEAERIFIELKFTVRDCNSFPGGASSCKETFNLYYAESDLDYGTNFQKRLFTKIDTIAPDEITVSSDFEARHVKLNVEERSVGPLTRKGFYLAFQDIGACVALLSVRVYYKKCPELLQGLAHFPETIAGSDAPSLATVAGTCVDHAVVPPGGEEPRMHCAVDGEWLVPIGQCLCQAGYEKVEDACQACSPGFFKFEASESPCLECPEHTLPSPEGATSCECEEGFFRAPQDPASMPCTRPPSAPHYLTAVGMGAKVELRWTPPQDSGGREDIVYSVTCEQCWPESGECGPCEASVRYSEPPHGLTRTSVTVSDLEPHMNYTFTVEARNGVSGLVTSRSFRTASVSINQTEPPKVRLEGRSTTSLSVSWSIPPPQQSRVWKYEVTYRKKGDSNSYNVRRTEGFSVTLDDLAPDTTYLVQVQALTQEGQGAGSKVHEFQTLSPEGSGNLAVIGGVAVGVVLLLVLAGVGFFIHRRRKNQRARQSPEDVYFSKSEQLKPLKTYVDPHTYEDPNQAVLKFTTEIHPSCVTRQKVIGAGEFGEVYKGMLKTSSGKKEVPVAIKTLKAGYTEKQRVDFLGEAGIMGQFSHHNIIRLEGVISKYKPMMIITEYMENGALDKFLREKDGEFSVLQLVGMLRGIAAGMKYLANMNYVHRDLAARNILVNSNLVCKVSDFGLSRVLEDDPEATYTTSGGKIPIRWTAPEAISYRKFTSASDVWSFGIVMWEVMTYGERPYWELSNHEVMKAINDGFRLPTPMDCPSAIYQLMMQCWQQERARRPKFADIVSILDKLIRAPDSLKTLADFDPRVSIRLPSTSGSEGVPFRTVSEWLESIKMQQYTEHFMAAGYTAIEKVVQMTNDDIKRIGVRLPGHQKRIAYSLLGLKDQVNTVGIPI", "test": "biochemical", "units": {"Ki": "nM"}, "protocol": "Peptides without a fluorescent tag were tested in competition with a peptide with a fluorescent tag and a known Kd.\nPeptides were diluted to an appropriate concentration in assay buffer as described in the direct binding assay with a maximum of 5% DMSO, then serially diluted 1 in 2. […] Measurements were conducted, however the gain was determined prior to the first measurement. Data analysis was in Systat Sigmaplot version 12.0 where the mP values were fit to a user defined cubic equation to generate a Ki value:\n“Lig”, “KLig” and “Prot” were all defined values relating to: fluorescent peptide concentration, the Kd of the fluorescent peptide and EphA2 concentration respectively."}
{"smiles": "CN[C@@H](C)C(=O)N[C@@H](CCCCNC(=N)N)C(=O)N[C@@H](CC(=O)O)C(=O)N[C@H]1CSCCC(=O)N2CN3CN(C2)C(=O)CCSC[C@H](NC(=O)[C@H](CC(C)C)NC(=O)[C@@H]2CCCN2C(=O)[C@H](CC(N)=O)NC(=O)[C@H](C(C)C)NC(=O)[C@H](CC(C)C)NC(=O)[C@@H]2C[C@@H](O)CN2C1=O)C(=O)N[C@@H](CC(C)C)C(=O)N[C@@H](CCC(=O)O)C(=O)N1CCC[C@H]1C(=O)N[C@H](CC(=O)O)C(=O)N[C@@H](Cc1c[nH]c2ccccc12)C(=O)N[C@@H]([C@@H](C)O)C(=O)N[C@H](C(N)=O)CSCCC3=O", "note": "[BCY13122, [NMeAla]-[HArg]-D-Ci[HyP]LVNPLCiiLEP[dD]WTCiii] (H-[NMeA][hArg]DC[Hyp]LVNPLCLEP[dD]WTC-NH2; linker 4-11-18 via TATA; N-terminus and C-terminus assumed)", "Ki": 7.8}
{"smiles": "CC(=O)N[C@H]1CSCCC(=O)N2CN3CN(C2)C(=O)CCSC[C@H](NC(=O)[C@H](CC(C)C)NC(=O)[C@@H]2CCCN2C(=O)[C@H](CC(N)=O)NC(=O)[C@H](C(C)C)NC(=O)[C@H](CC(C)C)NC(=O)[C@@H]2C[C@@H](O)CN2C1=O)C(=O)N[C@@H](CC(C)C)C(=O)N[C@@H](Cc1c[nH]cn1)C(=O)N1CCC[C@H]1C(=O)N[C@H](CC(=O)O)C(=O)N[C@@H](Cc1c[nH]c2ccccc12)C(=O)N[C@@H](CCCCNC(=N)N)C(=O)N[C@H](C(=O)N[C@@H](CC(C)C)C(=O)N[C@H](Cc1c[nH]cn1)C(=O)NCC(=O)N[C@H](CCCCN)C(N)=O)CSCCC3=O", "note": "[BCY13125, [Ac]Ci[HyP]LVNPLCiiLHP[dD]W[HArg]CiiiL[dH]G[dK]] (Ac-C[Hyp]LVNPLCLHP[dD]W[hArg]CL[dH]G[dK]-NH2; linker 1-8-15 via TATA; C-terminus assumed)", "Ki": 1.83}
{"smiles": "CC(C)C[C@@H]1NC(=O)[C@@H]2CSCCC(=O)N3CN(CN(C3)C(=O)CCSC[C@H](NC(=O)[C@H](CC(=O)O)NC(=O)[C@H](CCC(=O)O)NC(=O)[C@@H](C)N)C(=O)N3C[C@H](O)C[C@H]3C(=O)N[C@@H](CC(C)C)C(=O)N[C@@H](C(C)C)C(=O)N[C@@H](CC(N)=O)C(=O)N3CCC[C@H]3C(=O)N[C@@H](CC(C)C)C(=O)N2)C(=O)CCSC[C@@H](C(N)=O)NC(=O)[C@H]([C@@H](C)O)NC(=O)[C@H](Cc2c[nH]c3ccccc23)NC(=O)[C@@H](CC(=O)O)NC(=O)[C@@H]2CCCN2C(=O)[C@H](CCC(=O)O)NC1=O", "note": "[BCY13126, [dA]-ED-Ci[HyP]LVNPLCiiLEP[dD]WTCiii] (H-[dA]EDC[Hyp]LVNPLCLEP[dD]WTC-NH2; linker 4-11-18 via TATA; N-terminus and C-terminus assumed)", "Ki": 25.3}
{"smiles": "CC(C)C[C@@H]1NC(=O)[C@@H]2CSCCC(=O)N3CN(CN(C3)C(=O)CCSC[C@@H](C(=O)N[C@H](CCCCN)C(N)=O)NC(=O)[C@H]([C@@H](C)O)NC(=O)[C@H](Cc3c[nH]c4ccccc34)NC(=O)[C@@H](CC(=O)O)NC(=O)[C@@H]3CCCN3C(=O)[C@H](C(c3ccccc3)c3ccccc3)NC1=O)C(=O)CCSCCC(=O)N1C[C@H](O)C[C@H]1C(=O)N[C@@H](CC(C)C)C(=O)N[C@@H](C(C)C)C(=O)N[C@@H](CC(N)=O)C(=O)N1CCC[C@H]1C(=O)N[C@@H](CC(C)C)C(=O)N2", "note": "[BCY13129, [MerPro]i[HyP]LVNPLCiiL[3,3-DPA]P[dD]WTCiii[dK]] ([Mpa][Hyp]LVNPLCL[Dip]P[dD]WTC[dK]-NH2; linker 1-8-15 via TATA; C-terminus assumed)", "Ki": 1.88}
{"smiles": "CC(C)C[C@@H]1NC(=O)[C@@H]2CSCCC(=O)N3CN(CN(C3)C(=O)CCSC[C@H](NC(=O)[C@H](CC(=O)O)NC(=O)[C@H](CCCCNC(=N)N)NC(=O)[C@H](C)N)C(=O)N3C[C@H](O)C[C@H]3C(=O)N[C@@H](CCCC(=O)O)C(=O)N[C@@H](C(C)C)C(=O)N[C@@H](CC(N)=O)C(=O)N3CCC[C@H]3C(=O)N[C@@H](CC(C)C)C(=O)N2)C(=O)CCSC[C@@H](C(N)=O)NC(=O)[C@H](CCCCNC(=N)N)NC(=O)[C@H](Cc2c[nH]c3ccccc23)NC(=O)[C@@H](CC(=O)O)NC(=O)[C@@H]2CCCN2C(=O)[C@H](Cc2c[nH]cn2)NC1=O", "note": "[BCY13130, A-[HArg]-D-Ci[HyP][hGlu]VNPLCiiLHP[dD]W[HArg]Ciii] (H-A[hArg]DC[Hyp][Aad]VNPLCLHP[dD]W[hArg]C-NH2; linker 4-11-18 via TATA; N-terminus and C-terminus assumed)", "Ki": 7.8}
{"smiles": "CC(C)C[C@@H]1NC(=O)[C@@H]2C[C@@H](O)CN2C(=O)[C@@H](NC(=O)[C@H](CC(=O)O)NC(=O)[C@H](CCCCNC(=N)N)NC(=O)[C@H](C)N)CSCCC(=O)N2CN3CN(C2)C(=O)CCSC[C@H](NC(=O)[C@H](CC(C)C)NC(=O)[C@@H]2CCCN2C(=O)[C@H](CC(N)=O)NC(=O)[C@H](C(C)C)NC1=O)C(=O)N[C@@H](CCCC(=O)O)C(=O)N[C@@H](Cc1c[nH]cn1)C(=O)N1CCC[C@H]1C(=O)N[C@H](CC(=O)O)C(=O)N[C@@H](Cc1c[nH]c2ccccc12)C(=O)N[C@@H](CCCCNC(=N)N)C(=O)N[C@H](C(N)=O)CSCCC3=O", "note": "[BCY13131, A-[HArg]-D-Ci[HyP]LVNPLCii[hGlu]HP[dD]W[HArg]Ciii] (H-A[hArg]DC[Hyp]LVNPLC[Aad]HP[dD]W[hArg]C-NH2; linker 4-11-18 via TATA; N-terminus and C-terminus assumed)", "Ki": 27.1}
{"smiles": "CC(C)C[C@@H]1NC(=O)[C@@H]2CSCCC(=O)N3CN(CN(C3)C(=O)CCSC[C@H](NC(=O)[C@H](CC(=O)O)NC(=O)[C@H](CCCCNC(=N)N)NC(=O)[C@H](C)N)C(=O)N3C[C@H](O)C[C@H]3C(=O)N[C@@H](CC(C)C)C(=O)N[C@@H](C(C)C)C(=O)N[C@@H](CC(N)=O)C(=O)N3CCC[C@H]3C(=O)N[C@@H](CC(C)C)C(=O)N2)C(=O)CCSC[C@@H](C(N)=O)NC(=O)[C@H](CCCCNC(=N)N)NC(=O)[C@H](Cc2c[nH]c3ccccc23)NC(=O)[C@@H](CC(=O)O)NC(=O)[C@@H]2CCCN2C(=O)[C@H](CCCC(=O)O)NC1=O", "note": "[BCY13132, A-[HArg]-D-Ci[HyP]LVNPLCiiL[hGlu]P[dD]W[HArg]Ciii] (H-A[hArg]DC[Hyp]LVNPLCL[Aad]P[dD]W[hArg]C-NH2; linker 4-11-18 via TATA; N-terminus and C-terminus assumed)", "Ki": 7.08}
{"smiles": "CC(C)C[C@@H]1NC(=O)[C@@H]2CSCCC(=O)N3CN(CN(C3)C(=O)CCSC[C@H](NC(=O)[C@H](CC(=O)O)NC(=O)[C@H](CCCCNC(=N)N)NC(=O)[C@H](C)N)C(=O)N3C[C@H](O)C[C@H]3C(=O)N[C@@H](CC(C)C)C(=O)N[C@@H](C(C)C)C(=O)N[C@@H](CC(N)=O)C(=O)N3CCC[C@H]3C(=O)N[C@@H](CC(C)C)C(=O)N2)C(=O)CCSCCNC(=O)[C@H](CCCCNC(=N)N)NC(=O)[C@H](Cc2c[nH]c3ccccc23)NC(=O)[C@@H](CC(=O)O)NC(=O)[C@@H]2CCCN2C(=O)[C@H](Cc2c[nH]cn2)NC1=O", "note": "[BCY13133, A[HArg]DCi[HyP]LVNPLCiiLHP[dD]W[HArg][Cysam]iii] (H-A[hArg]DC[Hyp]LVNPLCLHP[dD]W[hArg]; linker 4-11-C via X5; N-terminus assumed)", "Ki": 3.24}
